Measurements: ChEMBL document CHEMBL3112480, “γ-Alkylidene-γ-lactones and isobutylpyrrol-2(5H)-ones analogues to rubrolides as inhibitors of biofilm formation by gram-positive and gram-negative bacteria” (Bioorg Med Chem Lett, 2014)
≈ marks a conversion by molar mass, not a printed value.

Experiments:
Pseudomonas aeruginosa [1] = experiment: Antibacterial activity against Pseudomonas aeruginosa ATCC 27853 assessed as effect on planktonic growth at 0.17 ug/ml after 20 hrs relative to control; assay type: functional
Staphylococcus aureus [2] = experiment: Antibacterial activity against Staphylococcus aureus ATCC 25923 assessed as effect on planktonic growth at 0.17 ug/ml after 20 hrs relative to control; assay type: functional
[3] = test system: Staphylococcus epidermidis; experiment: Antibacterial activity against Staphylococcus epidermidis ATCC 35547 assessed as effect on planktonic growth at 0.34 ug/ml after 20 hrs relative to control; assay type: functional
Staphylococcus aureus [4] = experiment: Antibacterial activity against Staphylococcus aureus ATCC 25923 assessed as effect on planktonic growth at 10.9 ug/ml after 20 hrs relative to control; assay type: functional
[5] = test system: Staphylococcus epidermidis; experiment: Antibacterial activity against Staphylococcus epidermidis ATCC 35547 assessed as effect on planktonic growth at 1.37 ug/ml after 20 hrs relative to control; assay type: functional
Streptococcus mutans [6] = experiment: Antibacterial activity against Streptococcus mutans ATCC 25175 assessed as effect on planktonic growth at 43.8 ug/ml after 20 hrs relative to control; assay type: functional
Staphylococcus aureus [7] = experiment: Antibacterial activity against Staphylococcus aureus ATCC 25923 assessed as effect on planktonic growth at 43.8 ug/ml after 20 hrs relative to control; assay type: functional
Pseudomonas aeruginosa [8] = experiment: Antibacterial activity against Pseudomonas aeruginosa ATCC 27853 assessed as effect on planktonic growth at 2.73 ug/ml after 20 hrs relative to control; assay type: functional
[9] = test system: Staphylococcus epidermidis; experiment: Antibacterial activity against Staphylococcus epidermidis ATCC 35547 assessed as effect on planktonic growth at 0.68 ug/ml after 20 hrs relative to control; assay type: functional
Pseudomonas aeruginosa [10] = experiment: Antibacterial activity against Pseudomonas aeruginosa ATCC 27853 assessed as effect on planktonic growth at 21.9 ug/ml after 20 hrs relative to control; assay type: functional
Staphylococcus aureus [11] = experiment: Antibacterial activity against Staphylococcus aureus ATCC 25923 assessed as effect on planktonic growth at 5.5 ug/ml after 20 hrs relative to control; assay type: functional
[12] = test system: Staphylococcus epidermidis; experiment: Antibacterial activity against Staphylococcus epidermidis ATCC 35547 assessed as effect on planktonic growth at 2.73 ug/ml after 20 hrs relative to control; assay type: functional
Staphylococcus aureus [13] = experiment: Antibacterial activity against Staphylococcus aureus ATCC 25923 assessed as effect on planktonic growth at 21.9 ug/ml after 20 hrs relative to control; assay type: functional
[14] = test system: Staphylococcus epidermidis; experiment: Antibacterial activity against Staphylococcus epidermidis ATCC 35547 assessed as effect on planktonic growth at 0.17 ug/ml after 20 hrs relative to control; assay type: functional
[15] = test system: Staphylococcus epidermidis; experiment: Antibacterial activity against Staphylococcus epidermidis ATCC 35547 assessed as effect on planktonic growth at 10.9 ug/ml after 20 hrs relative to control; assay type: functional
Pseudomonas aeruginosa [16] = experiment: Antibacterial activity against Pseudomonas aeruginosa ATCC 27853 assessed as effect on planktonic growth at 0.68 ug/ml after 20 hrs relative to control; assay type: functional
Streptococcus mutans [17] = experiment: Antibacterial activity against Streptococcus mutans ATCC 25175 assessed as inhibition of biofilm formation at 44 ug/ml after 20 hrs by crystal-violet staining method relative to control; assay type: functional; settings: ATCC 25175, 20 h
[18] = test system: Staphylococcus epidermidis; experiment: Antibacterial activity against Staphylococcus epidermidis ATCC 35547 assessed as effect on planktonic growth at 21.9 ug/ml after 20 hrs relative to control; assay type: functional
Pseudomonas aeruginosa [19] = experiment: Antibacterial activity against Pseudomonas aeruginosa ATCC 27853 assessed as effect on planktonic growth at 0.34 ug/ml after 20 hrs relative to control; assay type: functional
Staphylococcus aureus [20] = experiment: Antibacterial activity against Staphylococcus aureus ATCC 25923 assessed as effect on planktonic growth at 87.5 ug/ml after 20 hrs relative to control; assay type: functional
Pseudomonas aeruginosa [21] = experiment: Antibacterial activity against Pseudomonas aeruginosa ATCC 27853 assessed as effect on planktonic growth at 10.9 ug/ml after 20 hrs relative to control; assay type: functional
Staphylococcus aureus [22] = experiment: Antibacterial activity against Staphylococcus aureus ATCC 25923 assessed as effect on planktonic growth at 0.34 ug/ml after 20 hrs relative to control; assay type: functional
Streptococcus mutans [23] = experiment: Antibacterial activity against Streptococcus mutans ATCC 25175 assessed as effect on planktonic growth at 0.68 ug/ml after 20 hrs relative to control; assay type: functional
Staphylococcus aureus [24] = experiment: Antibacterial activity against Staphylococcus aureus ATCC 25923 assessed as effect on planktonic growth at 1.37 ug/ml after 20 hrs relative to control; assay type: functional
Streptococcus mutans [25] = experiment: Antibacterial activity against Streptococcus mutans ATCC 25175 assessed as effect on planktonic growth at 10.9 ug/ml after 20 hrs relative to control; assay type: functional
Staphylococcus aureus [26] = experiment: Antibacterial activity against Staphylococcus aureus ATCC 25923 assessed as effect on planktonic growth at 0.68 ug/ml after 20 hrs relative to control; assay type: functional
Streptococcus mutans [27] = experiment: Antibacterial activity against Streptococcus mutans ATCC 25175 assessed as effect on planktonic growth at 0.34 ug/ml after 20 hrs relative to control; assay type: functional
Pseudomonas aeruginosa [28] = experiment: Antibacterial activity against Pseudomonas aeruginosa ATCC 27853 assessed as effect on planktonic growth at 5.5 ug/ml after 20 hrs relative to control; assay type: functional
Pseudomonas aeruginosa [29] = experiment: Antibacterial activity against Pseudomonas aeruginosa ATCC 27853 assessed as effect on planktonic growth at 87.5 ug/ml after 20 hrs relative to control; assay type: functional
Streptococcus mutans [30] = experiment: Antibacterial activity against Streptococcus mutans ATCC 25175 assessed as effect on planktonic growth at 2.73 ug/ml after 20 hrs relative to control; assay type: functional
[31] = test system: Staphylococcus epidermidis; experiment: Antibacterial activity against Staphylococcus epidermidis ATCC 35547 assessed as effect on planktonic growth at 43.8 ug/ml after 20 hrs relative to control; assay type: functional
Streptococcus mutans [32] = experiment: Antibacterial activity against Streptococcus mutans ATCC 25175 assessed as effect on planktonic growth at 87.5 ug/ml after 20 hrs relative to control; assay type: functional
Streptococcus mutans [33] = experiment: Antibacterial activity against Streptococcus mutans ATCC 25175 assessed as effect on planktonic growth at 21.9 ug/ml after 20 hrs relative to control; assay type: functional
[34] = test system: Staphylococcus epidermidis; experiment: Antibacterial activity against Staphylococcus epidermidis ATCC 35547 assessed as effect on planktonic growth at 5.5 ug/ml after 20 hrs relative to control; assay type: functional
[35] = test system: Staphylococcus epidermidis; experiment: Antibacterial activity against Staphylococcus epidermidis ATCC 35547 assessed as effect on planktonic growth at 87.5 ug/ml after 20 hrs relative to control; assay type: functional
Streptococcus mutans [36] = experiment: Antibacterial activity against Streptococcus mutans ATCC 25175 assessed as effect on planktonic growth at 5.5 ug/ml after 20 hrs relative to control; assay type: functional
Staphylococcus aureus [37] = experiment: Antibacterial activity against Staphylococcus aureus ATCC 25923 assessed as effect on planktonic growth at 2.73 ug/ml after 20 hrs relative to control; assay type: functional
Streptococcus mutans [38] = experiment: Antibacterial activity against Streptococcus mutans ATCC 25175 assessed as effect on planktonic growth at 1.37 ug/ml after 20 hrs relative to control; assay type: functional
[39] = test system: Staphylococcus epidermidis; experiment: Antibacterial activity against Staphylococcus epidermidis ATCC 35547 assessed as inhibition of biofilm formation after 20 hrs by crystal-violet staining method; assay type: functional, organism-based; settings: for IC50: ATCC 35547, 20 h
Pseudomonas aeruginosa [40] = experiment: Antibacterial activity against Pseudomonas aeruginosa ATCC 27853 assessed as effect on planktonic growth at 43.8 ug/ml after 20 hrs relative to control; assay type: functional
Pseudomonas aeruginosa [41] = experiment: Antibacterial activity against Pseudomonas aeruginosa ATCC 27853 assessed as effect on planktonic growth at 1.37 ug/ml after 20 hrs relative to control; assay type: functional
Pseudomonas aeruginosa [42] = experiment: Antibacterial activity against Pseudomonas aeruginosa ATCC 27853 assessed as inhibition of biofilm formation after 20 hrs by crystal-violet staining method; assay type: functional, organism-based; settings: for IC50: ATCC 27853, 20 h
Streptococcus mutans [43] = experiment: Antibacterial activity against Streptococcus mutans ATCC 25175 assessed as effect on planktonic growth at 0.17 ug/ml after 20 hrs relative to control; assay type: functional

`COc1ccc(C)cc1C1=C(Br)C(=O)N(CC(C)C)/C1=C/c1cccc(Cl)c1` was tested, and the Activity (Pseudomonas aeruginosa [1]) was -2.3%, the Activity (Staphylococcus aureus [2]) was 4.1% and the Activity [3] was 16.2%. It also gave an Activity (Staphylococcus aureus [4]) of 0%, an Activity [5] of 4.2% and an Activity (Streptococcus mutans [6]) of -28.3%. For the same molecule, the Activity (Staphylococcus aureus [7]) was 1.8%, the Activity (Pseudomonas aeruginosa [8]) was 0.3% and the Activity [9] was 6.3%. For the same molecule, the Activity (Pseudomonas aeruginosa [10]) was 7.8%, the Activity (Staphylococcus aureus [11]) was 4.6% and the Activity [12] was 18.1%. For the same molecule, the Activity (Staphylococcus aureus [13]) was 0.6%, the Activity [14] was 13.9% and the Activity [15] was 14.3%. For the same molecule, the Activity (Pseudomonas aeruginosa [16]) was -1.3%, the inhibition at 44 µg/mL (Streptococcus mutans [17]) was 31.7% and the Activity [18] was 16.6%. It also gave an Activity (Pseudomonas aeruginosa [19]) of -2.2%, an Activity (Staphylococcus aureus [20]) of -3.2% and an Activity (Pseudomonas aeruginosa [21]) of 1.8%. It also gave an Activity (Staphylococcus aureus [22]) of 2.9%, an Activity (Streptococcus mutans [23]) of -2.3% and an Activity (Staphylococcus aureus [24]) of 12.5%. For the same molecule, the Activity (Streptococcus mutans [25]) was -12.4%, the Activity (Staphylococcus aureus [26]) was 5.8% and the Activity (Streptococcus mutans [27]) was -2.3%. It also gave an Activity (Pseudomonas aeruginosa [28]) of 1.5%, an Activity (Pseudomonas aeruginosa [29]) of 29.8% and an Activity (Streptococcus mutans [30]) of -6.8%. The Activity [31] was 33.5%, the Activity (Streptococcus mutans [32]) was -32.5% and the Activity (Streptococcus mutans [33]) was -22.7%. It also gave an Activity [34] of 8.4%, an Activity [35] of 39.2% and an Activity (Streptococcus mutans [36]) of -6.4%. For the same molecule, the Activity (Staphylococcus aureus [37]) was 9.2%, the Activity (Streptococcus mutans [38]) was -4.9% and the inhibition [39] was “Dose-dependent effect”. The IC50 [39] was 81.4 µg/mL (≈ 177 µM), the Activity (Pseudomonas aeruginosa [40]) was 10.5% and the Activity (Pseudomonas aeruginosa [41]) was -0.9%. The inhibition (Pseudomonas aeruginosa [42]) was “Dose-dependent effect”, the IC50 (Pseudomonas aeruginosa [42]) was 2.4 µg/mL (≈ 5.21 µM) and the Activity (Streptococcus mutans [43]) was -1.7%.
`COc1ccc(C)cc1C1=C(Br)C(=O)N(CC(C)C)/C1=C\c1cccc(Cl)c1` gave an Activity (Pseudomonas aeruginosa [1]) of 0.9%, an Activity (Staphylococcus aureus [2]) of 10.8% and an Activity [3] of 2.4%. For the same molecule, the Activity (Staphylococcus aureus [4]) was 13.2%, the Activity [5] was 6.4% and the Activity (Streptococcus mutans [6]) was -42.5%. The Activity (Staphylococcus aureus [7]) was 6.6%, the Activity (Pseudomonas aeruginosa [8]) was 3% and the Activity [9] was -4.2%. For the same molecule, the Activity (Pseudomonas aeruginosa [10]) was 21.3%, the Activity (Staphylococcus aureus [11]) was 18.4% and the Activity [12] was 11.4%. The Activity (Staphylococcus aureus [13]) was 4%, the Activity [14] was 5.6% and the Activity [15] was -19.8%. The Activity (Pseudomonas aeruginosa [16]) was 0.8%, the inhibition at 44 µg/mL (Streptococcus mutans [17]) was 34% and the Activity [18] was -38.6%. For the same molecule, the Activity (Pseudomonas aeruginosa [19]) was 0.8%, the Activity (Staphylococcus aureus [20]) was 4.8% and the Activity (Pseudomonas aeruginosa [21]) was 13.5%. It also gave an Activity (Staphylococcus aureus [22]) of 11.8%, an Activity (Streptococcus mutans [23]) of -6% and an Activity (Staphylococcus aureus [24]) of 12%. The Activity (Streptococcus mutans [25]) was -32.3%, the Activity (Staphylococcus aureus [26]) was 9.2% and the Activity (Streptococcus mutans [27]) was -4.1%. It also gave an Activity (Pseudomonas aeruginosa [28]) of 8.8%, an Activity (Pseudomonas aeruginosa [29]) of 35.3% and an Activity (Streptococcus mutans [30]) of -18.8%. It also gave an Activity [31] of -38.8%, an Activity (Streptococcus mutans [32]) of -46.7% and an Activity (Streptococcus mutans [33]) of -33.6%. The Activity [34] was 1.1%, the Activity [35] was -12.6% and the Activity (Streptococcus mutans [36]) was -26.3%. For the same molecule, the Activity (Staphylococcus aureus [37]) was 12.6%, the Activity (Streptococcus mutans [38]) was -14.9% and the inhibition [39] was “Dose-dependent effect”. It also gave an IC50 [39] of 67.4 µg/mL (≈ 146 µM), an Activity (Pseudomonas aeruginosa [40]) of 25.6% and an Activity (Pseudomonas aeruginosa [41]) of 0%. For the same molecule, the inhibition (Pseudomonas aeruginosa [42]) was “Dose-dependent effect”, the IC50 (Pseudomonas aeruginosa [42]) was 0.6 µg/mL (≈ 1.3 µM) and the Activity (Streptococcus mutans [43]) was -4.4%.
